The test system of assay [1] is human lung cancer-derived cell line NCI-H460 having wild-type p53. As to the kind of experiment: Cell growth inhibition assay (MTT). The format is cell-based. To be noted: 72 h, NCI-H460 cells, 3 days culture, values given as ranges, read-out: 50% growth inhibition concentration (GI50 value). The method in brief:
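NCI-H460 cells (wild-type p53) seeded at 500 cells/well in RPMI1640 with 10% FBS, then treated the next day and grown 3 days at 37 °C. MTT read-out at OD 540 nm (660 nm reference), taken at dosing and at day 3. GI50 derived from T/C (%) dose-response curves.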

The target in assay [2] is T1, Mdm2/p53 binding (GST-Mdm2 / His-p53) (Homo sapiens, UniProt Q00987, L33E).
T1 construct: Mdm2 partial protein having Mdm2 amino acids at positions 25 to 108
T1 sequence (Q00987 25-108 L33E): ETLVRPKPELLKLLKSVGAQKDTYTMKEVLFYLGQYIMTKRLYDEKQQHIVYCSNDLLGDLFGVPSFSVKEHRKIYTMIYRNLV
As to the kind of experiment: Mdm2/p53 binding assay (HTRF, His-p53 and GST-Mdm2). To be noted: His-p53 (aa 1-132) and GST-Mdm2 (aa 25-108, L33E) 6.25 nM each; 25°C, 1 hour; values given as ranges. The method in brief:
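Binding was detected by HTRF (ex 320 nm, em 620/665 nm) after 1 h at 25 °C, using Eu-cryptate anti-GST and XL665 anti-His antibodies. The protein pair was GST-Mdm2 (residues 25–108, L33E) with His-p53 (residues 1–132), each 6.25 nM in the protein dilution. T/C used no-compound control and no-p53 background, and IC50 came from sigmoid fitting.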
(In general: In TR-FRET formats the signal depends on donor and acceptor labels being close together.)

The structures appear in SMILES notation.

Turning to `CC1(C)CCC2(CC1)N[C@@H](C(=O)N[C@H]1C[C@H](C(N)=O)C1)[C@H](c1ccnc(Cl)c1F)[C@]21C(=O)Nc2cc(Cl)ccc21` [Example 114, (3′R, 4′S,5′R)—N-(trans-3-carbamoylcyclobutyl)-6″-chloro-4′-(2-chloro-3-fluoropyridin-4-yl)-4,4-dimethyl-2″-oxo-1″,2″-dihydrodispiro[cyclohexane-1,2′-pyrrolidine-3′,3″-indole]-5′-carboxamide], in assay [1], the GI50 lay in the range of 500 to 1000 nM. Besides, in assay [2], the IC50 (as a rule, the concentration needed to halve the response being measured) was 1 to 50 nM.
Take `CN(C)C(=O)[C@H]1C[C@H](NC(=O)[C@@H]2NC3(CCC(C)(C)CC3)[C@@]3(C(=O)Nc4cc(Cl)ccc43)[C@H]2c2ccnc(Cl)c2F)C1` [Example 115, (3′R, 4′S,5′R)-6″-chloro-4′-(2-chloro-3-fluoropyridin-4-yl)-N-[trans-3-(dimethylcarbamoyl)cyclobutyl]-4,4-dimethyl-2″-oxo-1″,2″-dihydrodispiro[cyclohexane-1,2′-pyrrolidine-3′,3″-indole]-5′-carboxamide]: the GI50 in assay [1] is 100 to 500 nM. The molecule further displayed a 50% inhibitory concentration (IC50) in assay [2] of 1 to 50 nM.
In the case of `CCN(CC)C(=O)[C@@H]1CC[C@@H](NC(=O)[C@@H]2NC3(CCC(C)(C)CC3)[C@@]3(C(=O)Nc4cc(Cl)ccc43)[C@H]2c2ccnc(Cl)c2F)CO1` [Example 116, (3′R, 4′S,5′R)-6″-chloro-4′-(2-chloro-3-fluoropyridin-4-yl)-N-[(3R,6S)-6-(diethylcarbamoyl)tetrahydro-2H-pyran-3-yl]-4,4-dimethyl-2″-oxo-1″,2″-dihydrodispiro[cyclohexane-1,2′-pyrrolidine-3′,3″-indole]-5′-carboxamide], in assay [1], the GI50 is under 100 nM. Moreover, the IC50 in assay [2] was 1 to 50 nM.
The matching figures for `CCN(CC)C(=O)[C@@H]1CC[C@@H](NC(=O)[C@@H]2NC3(CCC(C)(C)CC3)[C@@]3(C(=O)Nc4nc(Cl)ccc43)[C@H]2c2ccnc(Cl)c2F)CO1` [Example 117, (3′R, 4′S,5′R)-6″-chloro-4′-(2-chloro-3-fluoropyridin-4-yl)-N-[(3R,6S)-6-(diethylcarbamoyl)tetrahydro-2H-pyran-3-yl]-4,4-dimethyl-2″-oxo-1″,2″-dihydrodispiro[cyclohexane-1,2′-pyrrolidine-3′,3″-pyrrolo[2,3-b]pyridine]-5′-carboxamide]: 100 to 500 nM and 1 to 50 nM.
Regarding `CC1(C)CCC2(CC1)N[C@@H](C(=O)N[C@H]1C[C@H](C(C)(C)O)C1)[C@H](c1ccnc(Cl)c1F)[C@]21C(=O)Nc2cc(Cl)ccc21` [Example 154, (3′R, 4′S,5′R)-6′-chloro-4′-(2-chloro-3-fluoropyridin-4-yl)-N-[trans-3-(2-hydroxypropan-2-yl)cyclobutyl]-4,4-dimethyl-2″-oxo-1″,2″-dihydrodispiro[cyclohexane-1,2′-pyrrolidine-3′,3″-indole]-5′-carboxamide], in assay [1], the GI50 fell in the range of 100 to 500 nM. The molecule also displayed a 50% inhibitory concentration (IC50) in assay [2] of 50 to 100 nM.
In the case of `Cc1nnc([C@@H]2CC[C@@H](NC(=O)[C@@H]3NC4(CCC(C)(C)CC4)[C@@]4(C(=O)Nc5cc(Cl)ccc54)[C@H]3c3ccnc(Cl)c3F)CO2)o1` [Example 156], the GI50 in assay [1] was under 100 nM. Also, the half-maximal inhibitory concentration (IC50) in assay [2] lay within 1 to 50 nM.
Regarding `CC1(C)CCC2(CC1)N[C@@H](C(=O)N[C@@H]1CC[C@@H](CCO)OC1)[C@H](c1ccnc(Cl)c1F)[C@]21C(=O)Nc2cc(Cl)ccc21` [Example 160, (3′R, 4′S,5′R)-6″-chloro-4′-(2-chloro-3-fluoropyridin-4-yl)-N-[(3R,6S)-6-(2-hydroxyethyl)tetrahydro-2H-pyran-3-yl]-4,4-dimethyl-2″-oxo-1″,2″-dihydrodispiro[cyclohexane-1,2′-pyrrolidine-3′,3″-indole]-5′-carboxamide], in assay [1], the GI50 is under 100 nM. In assay [2], this molecule yielded a half-inhibitory concentration (IC50) of 50 to 100 nM.
In the case of `CC1(C)CCC2(CC1)N[C@@H](C(=O)N[C@@H]1CC[C@@H](Cc3nnco3)OC1)[C@H](c1ccnc(Cl)c1F)[C@]21C(=O)Nc2cc(Cl)ccc21` [Example 161, (3′R, 4′S,5′R)-6″-chloro-4′-(2-chloro-3-fluoropyridin-4-yl)-4,4-dimethyl-N-[(3R,6S)-6-(1,3,4-oxadiazol-2-ylmethyl)tetrahydro-2H-pyran-3-yl]-2″-oxo-1″,2″-dihydrodispiro[cyclohexane-1,2′-pyrrolidine-3′,3″-indole]-5′-carboxamide], the GI50 in assay [1] fell in the range of 100 to 500 nM. Moreover, the IC50 in assay [2] fell in the range of 50 to 100 nM.
As to `CC1(C)CCC2(CC1)N[C@@H](C(=O)NC1CC3(C1)CC(CO)(CO)C3)[C@H](c1ccnc(Cl)c1F)[C@]21C(=O)Nc2cc(Cl)ccc21` [Example 162, (3′R, 4′S,5′R)—N-[6,6-bis(hydroxymethyl)spiro[3.3]hepta-2-yl]-6″-chloro-4′-(2-chloro-3-fluoropyridin-4-yl)-4,4-dimethyl-2′-oxo-1″,2″-dihydrodispiro[cyclohexane-1,2′-pyrrolidine-3′,3″-indole]-5′-carboxamide], the GI50 in assay [1] fell in the range of 100 to 500 nM. In addition, the IC50 in assay [2] was in the range of 50 to 100 nM.
The matching figures for `O=C(N[C@@H]1CC[C@@H](CO)OC1)[C@@H]1NC2(CC(CF)(CF)C2)[C@@]2(C(=O)Nc3cc(Cl)ccc32)[C@H]1c1cc(F)cc(Cl)c1` [Example 164, (3′R, 4′R, 5′R)-6″-chloro-4′-(3-chloro-5-fluorophenyl)-3,3-bis(fluoromethyl)-N-[(3R,6S)-6-(hydroxymethyl)tetrahydro-2H-pyran-3-yl]-2″-oxo-1″,2″-dihydrodispiro[cyclobutane-1,2′-pyrrolidine-3′,3″-indole]-5′-carboxamide]: 1000 to 5000 nM and 100 to 500 nM.
Take `CC1(C)CCC2(CC1)N[C@@H](C(=O)N[C@@H]1CC[C@@H](C(=O)O)OC1)[C@H](c1ccnc(Cl)c1F)[C@]21C(=O)Nc2cc(Cl)ccc21` [Example 174, (2S,5R)-5-({[(3′B, 4′S,5′R)-6″-chloro-4′-(2-chloro-3-fluoropyridin-4-yl)-4,4-dimethyl-2″-oxo-1′″, 2″-dihydrodispiro[cyclohexane-1,2-pyrrolidine-3′,3″-indole]-5′-yl]carbonyl}amino)tetrahydro-2H-pyran-2-carboxylic acid]: in assay [1], the GI50 was over 5000 nM. For the same molecule, the IC50 in assay [2] fell in the range of 1 to 50 nM.
For `CC1(C)CCC2(CC1)N[C@@H](C(=O)N[C@@H]1CC[C@@H](C(N)=O)OC1)[C@H](c1cccc(Cl)c1F)[C@]21C(=O)Nc2nc(Cl)ccc21` [Example 179, (3′R, 4′S,5′R)—N-[(3R,6S)-6-carbamoyltetrahydro-2H-pyran-3-yl]-6″-chloro-4′-(3-chloro-2-fluorophenyl)-4,4-dimethyl-2″-oxo-1″,2″-dihydrodispiro[cyclohexane-1,2′-pyrrolidine-3′,3″-pyrrolo[2,3-b]pyridine]-5′-carboxamide], in assay [1], the GI50 lay within 1000 to 5000 nM. The same molecule gave an IC50 in assay [2] of 1 to 50 nM.
In the case of `C[C@@H](O)[C@@H]1CC[C@@H](NC(=O)[C@@H]2NC3(CCC(C)(C)CC3)[C@@]3(C(=O)Nc4nc(Cl)ccc43)[C@H]2c2cccc(Cl)c2F)CO1` [Example 180, (3′R, 4′S,5′R)-6″-chloro-4′-(3-chloro-2-fluorophenyl)-N-{(3R,6S)-6-[(1R)-1-hydroxyethyl]tetrahydro-2H-pyran-3-yl}-4,4-dimethyl-2″-oxo-1″,2″-dihydrodispiro[cyclohexane-1,2′-pyrrolidine-3′,3″-pyrrolo[2,3-b]pyridine]-5′-carboxamide], the GI50 in assay [1] was in the range of 1000 to 5000 nM. This molecule displayed an IC50 in assay [2] of 1 to 50 nM.
`C[C@@H](O)[C@@H]1CC[C@@H](NC(=O)[C@@H]2NC3(CCC(C)(C)CC3)[C@@]3(C(=O)Nc4cc(Cl)ccc43)[C@H]2c2cccc(Cl)c2F)CO1` [Example 182, (3′R, 4′S,5′R)-6″-chloro-4′-(3-chloro-2-fluorophenyl)-N-{(3S,6S)-6-[(1R)-1-hydroxyethyl]tetrahydro-2H-pyran-3-yl}-4,4-dimethyl-2′-oxo-1″,2″-dihydrodispiro[cyclohexane-1,2′-pyrrolidine-3′,3″-indole]-5-carboxamide]: in assay [1], the GI50 was under 100 nM. This molecule returned a 50% inhibitory concentration (IC50) in assay [2] of 1 to 50 nM.
The matching figures for `CC1(C)CCC2(CC1)N[C@@H](C(=O)N[C@H]1CC[C@H](c3nnco3)CC1)[C@H](c1cccc(Cl)c1F)[C@]21C(=O)Nc2cc(Cl)ccc21` [Example 183, (3′R, 4′S,5′R)-6′-chloro-4′-(3-chloro-2-fluorophenyl)-4,4-dimethyl-N-[trans-4-(1,3,4-oxadiazol-2-yl)cyclohexyl]-2″-oxo-1″,2″-dihydrodispiro[cyclohexane-1,2′-pyrrolidine-3′,3″-indole]-5′-carboxamide]: 100 to 500 nM and 50 to 100 nM.
Turning to `CC1(C)CCC2(CC1)N[C@@H](C(=O)N[C@@H]1CC[C@@H](C(N)=O)OC1)[C@H](c1cccc(Cl)c1F)[C@]21C(=O)Nc2cc(Cl)ncc21` [Example 185, (3′R, 4′S,5′R)—N-[(3R,6S)-6-carbamoyltetrahydro-2H-pyran-3-yl]-6″-chloro-4′-(3-chloro-2-fluorophenyl)-4,4-dimethyl-2″-oxo-1″,2″-dihydrodispiro[cyclohexane-1,2-pyrrolidine-3′,3″-pyrrolo[3,2-c]pyridine]-5′-carboxamide], the GI50 in assay [1] lay in the range of 100 to 500 nM. Moreover, the IC50 in assay [2] fell in the range of 1 to 50 nM.

Values taken from patent US12545685B2 (Daiichi Sankyo Company, Limited, priority 2011, dated 2026).
